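Step 1: Grow cells in 96-well plates. Step 2: Expose to compound for 48 hours at 5 concentrations. Step 3: Interpolate endpoints linearly; if unreached, use highest concentration. The concentration for 50% growth inhibition is given as GI50.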 Calls of active or inactive are those of the source. Cut-off read from the data, not from the text of the source: active = GI50 up to about 1.1 µM and inactive = higher.
Columns and labels:
Test in all cases: inhibition of tumour cell growth, NCI panel, 48 h
[1] = tested on: RXF 393
[2] = tested on: A549
[3] = tested on: CCRF-CEM
[4] = tested on: NCI-H226
[5] = tested on: MOLT-4
[6] = tested on: SF-268
[7] = tested on: SNB-75
[8] = tested on: IGROV-1
[9] = tested on: HOP-62
[10] = tested on: Malme-3M
[11] = tested on: NCI-H460
[12] = tested on: TK-10
[13] = tested on: 786-0
[14] = tested on: NCI-H23
[15] = tested on: OVCAR-3

Measured: GI50

Cc1nc2cc3nc4ccccc4c(O)c3cc2s1
inactive: [1] > 100 µM | [2] > 100 µM | [3] > 100 µM | [4] > 100 µM | [5] > 100 µM | [6] > 100 µM | [7] > 100 µM | [8] > 100 µM | [9] > 100 µM | [10] > 100 µM | [11] > 100 µM | [12] > 100 µM | [13] > 100 µM | [14] > 100 µM | [15] > 100 µM

CC(=O)/C(=C\C1=CCCO1)C(=O)Nc1ccccc1C
inactive: [1] > 100 µM | [2] > 100 µM | [3] > 100 µM | [4] > 100 µM | [5] > 100 µM | [6] > 100 µM | [8] > 100 µM | [9] > 100 µM | [10] > 100 µM | [11] > 100 µM | [12] > 100 µM | [13] > 100 µM | [14] > 100 µM | [15] > 100 µM

COC(=O)N/N=C(\C)CC(=O)Nc1cccc([N+](=O)[O-])c1
inactive: [1] > 100 µM | [2] > 100 µM | [3] > 100 µM | [4] > 100 µM | [5] > 100 µM | [6] > 100 µM | [7] > 100 µM | [8] > 100 µM | [9] > 100 µM | [10] > 100 µM | [11] > 100 µM | [12] > 100 µM | [13] > 100 µM | [14] > 100 µM | [15] > 100 µM

CCOC(=O)C1(c2ccccc2)CCCNCC1 (stereo not drawn)
inactive: [1] > 100 µM | [2] > 100 µM | [3] 28.1 µM | [4] > 100 µM | [5] 45.9 µM | [6] > 100 µM | [7] > 100 µM | [8] > 100 µM | [9] 32.4 µM | [10] > 100 µM | [11] 29 µM | [12] > 100 µM | [13] > 100 µM | [14] 35.3 µM | [15] 74.6 µM

CCOC(=O)C(=O)Nc1c(C(C)C)cccc1C(C)C
inactive: [1] > 100 µM | [2] > 100 µM | [3] > 100 µM | [4] > 100 µM | [5] > 100 µM | [6] > 100 µM | [7] > 100 µM | [8] > 100 µM | [9] > 100 µM | [10] > 100 µM | [11] > 100 µM | [12] > 100 µM | [13] > 100 µM | [14] > 100 µM | [15] > 100 µM

N#CC(C(=O)C(=O)NCCCNC(=O)C(=O)C(C#N)c1ccccc1)c1ccccc1 (stereo not drawn)
inactive: [1] > 100 µM | [2] > 100 µM | [3] > 100 µM | [4] > 100 µM | [5] > 100 µM | [6] > 100 µM | [7] 30.1 µM | [8] > 100 µM | [9] > 100 µM | [10] > 100 µM | [11] > 100 µM | [12] > 100 µM | [13] > 100 µM | [14] > 100 µM | [15] > 100 µM

COC(=O)C(CC(=O)Nc1ccc(C)cc1)C(=O)C(=O)Nc1c(C(C)C)cccc1C(C)C (stereo not drawn)
inactive: [1] > 100 µM | [2] > 100 µM | [3] > 100 µM | [4] > 100 µM | [5] > 100 µM | [6] > 100 µM | [7] 97.7 µM | [8] > 100 µM | [9] > 100 µM | [10] > 100 µM | [11] > 100 µM | [12] > 100 µM | [13] > 100 µM | [14] > 100 µM

O=[N+]([O-])c1cc(I)cc(/C=N/NS(=O)(=O)c2ccc(F)cc2)c1O
inactive: [1] 27 µM | [2] 35.5 µM | [3] 22 µM | [5] 24.7 µM | [6] 28.9 µM | [7] 25 µM | [8] 33.7 µM | [9] 26.2 µM | [10] 21.2 µM | [11] 21.9 µM | [12] 28.6 µM | [13] 28.4 µM | [14] 20 µM | [15] 19 µM

O=S1(=O)CSc2ccc3ccccc3c2-c2c1ccc1ccccc21
inactive: [1] > 100 µM | [2] > 100 µM | [3] > 100 µM | [5] > 100 µM | [6] > 100 µM | [7] > 100 µM | [8] > 100 µM | [9] > 100 µM | [10] > 100 µM | [11] > 100 µM | [12] > 100 µM | [13] > 100 µM | [14] > 100 µM | [15] > 100 µM

NC(=S)N/N=C1\C(=O)N(c2cccc([N+](=O)[O-])c2)C(=O)C1C(=O)Nc1cccc([N+](=O)[O-])c1 (stereo not drawn)
inactive: [1] > 100 µM | [2] > 100 µM | [3] > 100 µM | [4] > 100 µM | [5] > 100 µM | [6] > 100 µM | [7] > 100 µM | [8] > 100 µM | [9] > 100 µM | [10] > 100 µM | [12] > 100 µM | [13] > 100 µM | [14] > 100 µM | [15] > 100 µM

O=C(O)c1c[nH]c2c(ccc3ncccc32)c1=O
inactive: [1] > 100 µM | [2] > 100 µM | [3] > 100 µM | [5] > 100 µM | [6] > 100 µM | [7] > 100 µM | [8] > 100 µM | [9] > 100 µM | [10] > 100 µM | [11] > 100 µM | [12] > 100 µM | [13] > 100 µM | [14] > 100 µM | [15] > 100 µM

CN(C)CC1CCCC/C1=N/O (stereo not drawn)
inactive: [1] > 100 µM | [2] > 100 µM | [3] > 100 µM | [4] > 100 µM | [5] > 100 µM | [6] > 100 µM | [7] > 100 µM | [8] > 100 µM | [9] > 100 µM | [10] > 100 µM | [11] > 100 µM | [12] > 100 µM | [13] > 100 µM | [14] > 100 µM | [15] > 100 µM

O=C(NS(=O)(=O)c1ccccc1)C(Cc1ccccc1)C(Cc1ccccc1)C(=O)NS(=O)(=O)c1ccccc1 (stereo not drawn)
inactive: [1] > 100 µM | [2] > 100 µM | [3] > 100 µM | [4] 62.4 µM | [5] > 100 µM | [6] > 100 µM | [7] > 100 µM | [8] > 100 µM | [9] > 100 µM | [10] > 100 µM | [11] > 100 µM | [12] > 100 µM | [13] > 100 µM | [14] > 100 µM | [15] > 100 µM

CN1CCn2c(Br)ccc2C1=O
inactive: [1] > 100 µM | [2] > 100 µM | [3] > 100 µM | [4] > 100 µM | [5] > 100 µM | [6] > 100 µM | [8] > 100 µM | [9] > 100 µM | [10] > 100 µM | [11] > 100 µM | [12] > 100 µM | [13] > 100 µM | [14] > 100 µM | [15] > 100 µM

[O-][S+]1c2ccccc2N=C(c2ccc3ccccc3c2)CC1c1ccccc1F (stereo not drawn)
inactive: [1] > 100 µM | [2] > 100 µM | [3] 67.8 µM | [4] 82.2 µM | [5] 48.2 µM | [6] > 100 µM | [7] 20.5 µM | [8] > 100 µM | [9] > 100 µM | [10] > 100 µM | [11] > 100 µM | [12] > 100 µM | [13] > 100 µM | [14] > 100 µM | [15] > 100 µM

CC1OC(OC2C(OC(=O)[C@]34CCC(C)(C)CC3C3=CCC5[C@@]6(C)C[C@H](O)[C@H](OC7OC(COC8OC(CO)C(O)C(O)C8O)C(O)C(O)C7O)[C@@](C)(C(=O)O)C6CC[C@@]5(C)C3(C)CC4)OCC(O)C2O)C(O)C(O)C1OC1OCC(O)C(O)C1O (stereo partly drawn)
inactive: [1] > 100 µM | [2] > 100 µM | [3] > 100 µM | [4] > 100 µM | [5] > 100 µM | [6] > 100 µM | [7] > 100 µM | [8] > 100 µM | [9] > 100 µM | [10] > 100 µM | [11] > 100 µM | [12] > 100 µM | [13] > 100 µM | [14] > 100 µM | [15] > 100 µM

COC1C2C=CC(C2)[C@H]1[N+](=O)[O-] (stereo partly drawn)
inactive: [1] > 100 µM | [2] > 100 µM | [3] 74.1 µM | [4] > 100 µM | [5] > 100 µM | [6] > 100 µM | [7] > 100 µM | [8] > 100 µM | [9] > 100 µM | [10] > 100 µM | [11] > 100 µM | [12] > 100 µM | [13] > 100 µM | [14] > 100 µM | [15] > 100 µM

CC(C)(C)CC(C)(C)c1ccc(OCCOCC[N+](C)(C)Cc2ccccc2)cc1 [BENZETHONIUM CHLORIDE]
inactive: [1] 3.11 µM | [2] 8.71 µM | [3] 1.79 µM | [4] 5.19 µM | [5] 2.22 µM | [6] 1.94 µM | [7] 2.43 µM | [8] 1.52 µM | [9] 8.93 µM | [10] 1.52 µM | [11] 3.05 µM | [12] 3.64 µM | [13] 5.01 µM | [14] 1.66 µM | [15] 1.52 µM

From ChEMBL document CHEMBL1201862, “PubChem BioAssay data set” (2004)
